In patent US20250368552A1, “INHIBITION OF BIOFILMS GROWTH IN PROCESS WATERS WITH MICROBIAL INTERACTIVE COMPOSITIONS” (ECOLAB USA INC., priority 2024, published 2025):

Key:
[1] = test system: Bact P2 (Cooling Water Bacteria Population 2), planktonic growth; assay: Planktonic inhibition (minimum inhibition concentration in liquid culture); type: cell-based; details: minimum inhibitory concentration
Source text: (§1) Another plate was run according to the same procedures outlined in Examples 1-3. The experiment tested Chemicals including Alkyl Poly Glucoside, QAT Biocide, Chemical B, Chemical A+D for Planktonic inhibition as well as Biofilm Inhibition as reflected in Table 4.
(§2) The results in Table 4 show minimum biofilm inhibition concentrations (ppm) when treating different bacterial populations with each of the chemicals alone.
(§3) Minimum Inhibition Concentration (MIC): at this concentration, bacterial population stopped growth under the above incubation conditions
(§4) OD600 turbidity: bacterial concentration is correlated with the medium turbidity, The planktonic concentration can be calculated using a turbidity to bacterial count concentration model. If OD600 is <0.1, it is considered bacterial counts <10^3 cfu/ml.

[2] = test system: Bact P1 (Cooling Water Bacteria Population 1), planktonic growth; assay: as above; type: cell-based
Source text: as §1, §2, §3, §4

[3] = test system: Cooling Water Bacteria Population 2; assay: Biofilm inhibition test, 96 well microtiter plate, crystal violet stain (similar to ASTM E2799-12 MBEC assay); type: cell-based, Pseudomonas species in cooling water systems
Source text: (§5) The bacterial species used for the biofilm inhibition testing included: 1) cooling water bacterial population 1=total aerobic bacterial population that was obtained from cooling water samples in cooling water systems and grown on standard nutrient agar for aerobic bacteria, and 2) cooling water bacterial population 2=Pseudomonas species in cooling water systems. Pseudomonas species were collected from cooling water samples from selective media. The collected Pseudomonas population from cooling water systems were stored at −80° C. and re-inoculated into 100 mL fresh test medium (described below), incubated at a rotary shaker at 35° C., […] for 18-24 hours before used as a starter culture.
The concentration range for the testing of these microorganisms for the waters was 10^4-10^8 CFU/ml.
The following Examples utilized a 96-well microtiter plate and aerobic incubation.
The Biofilm inhibition testing utilized a test medium with a final concentration of 16% test medium in the water. […]
(§6) To quantify the biofilm and effect of the chemicals, the minimal biofilm eradication concentration (MBEC) using a method similar to the ASTM method for Testing disinfectant efficacy against Pseudomonas aeruginosa Biofilm using MBEC Assay (E2799-12), Standard Test Method for Testing Disinfectant Efficacy against Pseudomonas aeruginosa Biofilm using MBEC Assay. […]

biofilm = assay: Biofilm quantity on surface by crystal violet staining, biofilm reduction vs control; type: cell-based; details: for Avg Biofilm Reduction: (Treatment OD595 - Control OD595)*100/Control OD595, negative = less biofilm
Source text: (§7) Additional testing was run to show various evaluated concentrations of chemistries including No Treatment (Control), QAT Biocide, Chemical B, and Chemical A+E for assessing biofilm reduction based on average planktonic bacterial concentrations as shown in Table 5.
The following methodology for the biofilm concentration on surface were used:
Biofilm quantity: biofilm quantity grew on surface can be determined by crystal violate staining, followed by 3 times of washing and then eluting.
Biofilm Reduction from chemical treatment is calculated by the following: (average Treatment OD595-average Control OD595)*100/average Control OD595 where the CV absorbance range used was 580-595 nm. If OD595 was <0.1, it was considered as non-biofilm formation. CV absorbance range 580-595 nm was used in different tests.

[4] = test system: Cooling Water Bacteria Population 1; assay: Biofilm inhibition test, 96 well microtiter plate, crystal violet stain (similar to ASTM E2799-12 MBEC assay); type: cell-based
Source text: as §5, with “culture. […]” for “culture.”
as §6
The control where there was no chemical treatment present indicated a steady presence of biofilm build up between absorbance 0.5 to 0.6. The biofilm concentrations are correlated to the absorbance at wavelength 580-595 nm (depicted in figures as Obs 580 nm). […]

planktonic bacteria = assay: Average planktonic bacterial concentration in liquid culture (plate count / OD600 turbidity); type: cell-based; details: control 8.7
Source text: as §7
The following methodology for the bacterial concentration in liquid culture were used:
Plate count: plate the treated bacterial mixture after serial dilutions with required mediums like R2A, Petrifilms etc.
as §4

[5] = test system: indigenous microbial populations of cooling water sources; assay: MIC of hypochlorite (as free chlorine) for biofilm formation in commercial cooling water sources; type: cell-based; details: for MIC hypochlorite: hypochlorite alone, as free chlorine
Experimental: Additional testing was completed to show the benefit of reducing a biocidal dose with the method of preventing biofilms described herein. Various commercial cooling water sources were evaluated for the MIC of hypochlorite (Minimum Inhibition Concentration as free chlorine for biofilm formation) as the biocide dosed with the Chemistry A+Chemistry E. The test conditions and results are shown in Table 6.
Under certain conditions the biocide dosing requirement was reduced by over 90%.

[6] = concentration giving biofilm reduction
[7] = minimum biofilm inhibition concentration

SMILES: CCCCCCCCCC[N+](C)(C)CCCCCCCCCC.[Cl-] [QATS Biocide, Didecyl Dimethyl Ammonium Chloride]
- Planktonic Inhibition Bact P2 [1]: 1.6 ppm
- Concentration that effectively killed planktonic bacteria ([2]; Table 4, Bact P1 and Bact P2): ≤ 3 ppm
- Planktonic Inhibition Bact P1 ([2]; minimum inhibitory concentration, Bact P1): 3 ppm
- Biofilm reduction Bact P2 [3, 6]: 0.8 ppm
- Total Biofilm Inhibition Bact P2 [3, 7]: 1.6 ppm
- Avg Biofilm Reduction (biofilm; 1.6 ppm): 49.9%
- Avg Biofilm Reduction (biofilm; 3.1 ppm): 54.0%
- Avg Biofilm Reduction (biofilm; 6.2 ppm): 108.4%
- Avg Biofilm Reduction (biofilm; 12.5 ppm): −3.5%
- Avg Biofilm Reduction (biofilm; 25.0 ppm): 34.7%
- Avg Biofilm Reduction (biofilm; 50.0 ppm): −89.1%
- Avg Biofilm Reduction (biofilm; 100.0 ppm): −12.1%
- Concentration showing both planktonic and biofilm control (biofilm; Table 5): greater than 50 ppm
- Biofilm Reduction Bact P1 [4, 6]: 0.8 ppm
- Total Biofilm Inhibition Bact P1 [4, 7]: 6 ppm
- Avg Planktonic Bacterial Conc (planktonic bacteria; 1.6 ppm): 8.672 Log cfu/ml
- Avg Planktonic Bacterial Conc (planktonic bacteria; 3.1 ppm): 8.688 Log cfu/ml
- Avg Planktonic Bacterial Conc (planktonic bacteria; 6.2 ppm): 8.609 Log cfu/ml
- Avg Planktonic Bacterial Conc (planktonic bacteria; 12.5 ppm): 8.492 Log cfu/ml
- Avg Planktonic Bacterial Conc (planktonic bacteria; 25.0 ppm): 8.590 Log cfu/ml
- Avg Planktonic Bacterial Conc (planktonic bacteria; 50.0 ppm): <3.000 Log cfu/ml
- Avg Planktonic Bacterial Conc (planktonic bacteria; 100.0 ppm): <3.000 Log cfu/ml

SMILES: OCl [hypochlorite]
- MIC hypochlorite ([5]; Cooling Water Source 1): 25 ppm
- MIC hypochlorite (ppm) With 6 ppm Chemistry A + Chemistry E ([5]; Cooling Water Source 1): 3.1 ppm
- MIC hypochlorite ([5]; Cooling Water Source 2): 25 ppm
- MIC hypochlorite (ppm) With 6 ppm Chemistry A + Chemistry E ([5]; Cooling Water Source 2): 6.3 ppm
- MIC hypochlorite ([5]; Cooling Water Source 3): 12.5 ppm
- MIC hypochlorite (ppm) With 6 ppm Chemistry A + Chemistry E ([5]; Cooling Water Source 3): 0.8 ppm
- MIC hypochlorite ([5]; Cooling Water Source 4): 25 ppm
- MIC hypochlorite (ppm) With 6 ppm Chemistry A + Chemistry E ([5]; Cooling Water Source 4): 12.5 ppm
